Ki data for 9 compounds are collected here from patent EP2065382A1, “CGRP antagonists” (Boehringer Ingelheim Pharma GmbH & Co. KG, priority 2007, dated 2009).

This assay concerns the target T1, humanen CGRP-Rezeptor (Homo sapiens, UniProt O60894+Q16602).
T1 construct: SK-N-MC-Zellen werden in "Dulbecco's modified Eagle Medium" kultiviert; endogenous in cells; host or cells: SK-N-MC cells (membrane homogenate)
The assay can be described thus: Binding studies with SK-N-MC cells expressing the human CGRP receptor (125I-CGRP displacement on membrane homogenate). Particulars: 50 pM 125I-Iodotyrosyl-CGRP, 180 min at room temperature. As to the method:
A. Bindungsstudien mit (den humanen CGRP-Rezeptor exprimierenden) SK-N-MC-Zellen
SK-N-MC-Zellen werden in "Dulbecco's modified Eagle Medium" kultiviert. Das Medium konfluenter Kulturen wird entfernt. Die Zellen werden zweimal mit PBS-Puffer (Gibco 041-04190 M) gewaschen, durch Zugabe von PBS-Puffer, versetzt mit 0.02% EDTA, abgelöst und durch Zentrifugation isoliert. Nach Resuspension in 20 ml "Balanced Salts Solution" [BSS (in mM): NaCl 120, KCl 5.4, NaHCO3 16.2, MgSO4 0.8, NaHPO4 1.0, CaCl2 1.8, D-Glucose 5.5, HEPES 30, pH 7.40] werden die Zellen zweimal bei 100 x g zentrifugiert und in BSS resuspendiert. Nach Bestimmung der Zellzahl werden die Zellen mit Hilfe eines Ultra-Turrax homogenisiert und für 10 Minuten bei 3000 x g zentrifugiert. Der Überstand wird verworfen und das Pellet in Tris-Puffer (10 mM Tris, 50 mM NaCl, 5 mM MgCl2, 1 mM EDTA, pH 7.40), angereichert mit 1% Rinderserum-Albumin und 0.1% Bacitracin, rezentrifugiert und resuspendiert (1 ml / 1000000 Zellen). Das Homogenat wird bei -80°C eingefroren. Die Membranpräparationen sind bei diesen Bedingungen für mehr als 6 Wochen stabil.
Nach Auftauen wird das Homogenat 1:10 mit Assay-Puffer (50 mM Tris, 150 mM NaCl, 5 mM MgCl2, 1 mM EDTA, pH 7.40) verdünnt und 30 Sekunden lang mit einem Ultra-Turrax homogenisiert. 230 µl des Homogenats werden für 180 Minuten bei Raumtemperatur mit 50 pM ^125I-Iodotyrosyl-Calcitonin-Gene-Related Peptide (Amersham) und ansteigenden Konzentrationen der Testsubstanzen in einem Gesamtvolumen von 250 µl inkubiert. Die Inkubation wird durch rasche Filtration durch mit Polyethylenimin (0.1%) behandelte GF/B-Glasfaserfilter mittels eines Zellharvesters beendet. Die an Protein gebundene Radioaktivität wird mit Hilfe eines Gammacounters bestimmt. Als nichtspezifische Bindung wird die gebundene Radioaktivität nach Gegenwart von 1 µM humanem CGRP-alpha während der Inkubation definiert.
Die Analyse der Konzentrations-Bindungskurven erfolgt mit Hilfe einer computergestützten nichtlinearen Kurvenanpassung.

Read-outs that look alike come from different tables or passages of the source.

T1 sequence (Q16602 23-461): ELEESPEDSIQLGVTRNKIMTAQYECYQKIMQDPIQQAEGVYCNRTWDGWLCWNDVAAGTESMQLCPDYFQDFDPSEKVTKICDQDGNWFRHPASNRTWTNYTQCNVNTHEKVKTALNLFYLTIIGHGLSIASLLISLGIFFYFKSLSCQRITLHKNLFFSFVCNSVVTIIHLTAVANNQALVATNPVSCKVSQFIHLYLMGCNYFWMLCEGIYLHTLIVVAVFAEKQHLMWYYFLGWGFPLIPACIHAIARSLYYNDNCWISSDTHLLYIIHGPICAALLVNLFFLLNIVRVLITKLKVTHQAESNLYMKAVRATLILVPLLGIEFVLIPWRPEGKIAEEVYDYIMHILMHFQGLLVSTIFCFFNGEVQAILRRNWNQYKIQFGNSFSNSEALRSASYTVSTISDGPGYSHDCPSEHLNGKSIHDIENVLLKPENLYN
T1 sequence (O60894 27-148): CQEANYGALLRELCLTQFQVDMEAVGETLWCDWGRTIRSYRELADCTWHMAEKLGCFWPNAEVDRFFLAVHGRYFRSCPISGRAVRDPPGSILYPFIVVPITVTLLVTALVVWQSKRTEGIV

`Cc1ccc2c(C(=O)c3cc(N4CCC(n5c(=O)[nH]c6ncccc65)CC4)ncn3)cn(C)c2c1` [(30)]: the Ki (as a rule, the equilibrium dissociation constant of an inhibitor or competing ligand from its target) (read-out: Ki) came out at 25 nM.

The compound `Cn1cc(C(=O)c2cc(N3CCC(n4cc(-c5ccccc5)[nH]c4=O)CC3)ncn2)c2ccccc21` [(14)] yielded a Ki of 6 nM.

`O=C(c1cc(N2CCC(n3c(=O)[nH]c4ncccc43)CC2)ncn1)c1c[nH]c2ccccc12` [(1)] yielded a Ki of 120 nM.

Turning to `Cn1cc(C(=O)c2cc(N3CCC(n4c(=O)[nH]c5ccccc54)CC3)ncn2)c2ccccc21` [(9)], the Ki came out at 251 nM.

On to `O=C(c1cc(N2CCC(n3c(=O)[nH]c4ncccc43)CC2)ncn1)c1cn(CCCN2CCCCC2)c2ccccc12` [(25)], for which affinity was put at a Ki of 16 nM.

In turn, `CN(C)CCCn1cc(C(=O)c2cc(N3CCC(n4c(=O)[nH]c5ncccc54)CC3)ncn2)c2ccccc21` [(42)] returned a Ki of 6 nM.

`COc1ccc2c(c1)CCN(C1CCN(c3cc(C(=O)c4cn(C)c5ccccc45)ncn3)CC1)C(=O)N2` [(4)]: the inhibition constant (Ki) came out at 4 nM.

Consider `Cn1cc(C(=O)c2cc(N3CCC(n4c(=O)[nH]c5ncccc54)CC3)ncn2)c2ccccc21` [(2)], for which, for the setting “read-out: Ki”, the Ki came out at 5 nM.

Compound `Cn1cc(C(=O)c2cc(N3CCC(n4c(=O)[nH]c5ncccc54)CC3)ncn2)c2ccc(F)cc21` [(21)] had a Ki of 2 nM.
